Assay results from patent US10544130B2, “Metallo-beta-lactamase inhibitors” (priority 2015, dated 2020).

Experiments:
[1] = test system: Klebsiella pneumoniae expressing VIM-1 (IHMA599644); type: cell-based; conditions: with imipenem 1 μg/ml; 95% inhibition of bacterial growth
Method in brief: (§1)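 Growth read by absorbance after 22–24 h at 35 °C in CAMHB, with test compound alone or combined with 1 μg/ml imipenem. Inocula came from overnight 35 °C blood-agar colonies, set to a defined OD600 and diluted 1:100. Value is the inhibitor concentration giving synergy.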

[2] = test system: Serratia marcescens expressing IMP-1 (CL5741); type: cell-based; conditions: with imipenem 1 μg/ml; 95% inhibition of bacterial growth
Method in brief: as §1

[3] = test system: Pseudomonas aeruginosa PAO1 MB9798 (efflux+, IMP-1); conditions: ratio MITC95 PA 9798/MITC95 PA 9799; imipenem at 2 μg/mL
Method in brief: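 Isogenic PAO1 pair (efflux+ MB9798, efflux− MB9799, both IMP-1) tested by microbroth MIC with fixed imipenem and/or ceftazidime, usually at CLSI breakpoint, plus fixed class A/C inhibitor against AmpC. MBL inhibitor titrated; concentration restoring susceptibility recorded and fold difference between strains taken as efflux extent.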

Structure (SMILES) | Klebsiella pneumoniae (VIM-1) MITC95 [1] [µM] | Serratia marcescens (IMP-1) MITC95 [2] [µM] | Efflux ratio [3]
Nc1ncc(-c2cccc(-c3ccc(S(=O)(=O)N[C@@H]4CCNC4)c(S(N)(=O)=O)c3-c3nnn[nH]3)n2)[nH]1 [Example 439, (R)-4-(6-(2-Amino-1H-imidazol-5-yl)pyridin-2-yl)-N^1-(pyrrolidin-3-yl)-3-(1H-tetrazol-5-yl)benzene-1,2-disulfonamide] | 1.563 | 1.563 | –
NCC(CN)NS(=O)(=O)c1ccc(-c2cccc3ccc(N)nc23)c(-c2nn[nH]n2)c1S(N)(=O)=O [Example 430, 4-(2-aminoquinolin-8-yl)-N1-(1,3-diaminopropan-2-yl)-3-(2H-tetrazol-5-yl)benzene-1,2-disulfonamide] | 1.563 | 1.563 | –
C[C@H](CN)NS(=O)(=O)c1ccc(-c2cccnc2NCCN)c(-c2nn[nH]n2)c1S(N)(=O)=O [Example 460, (R)-4-(2-((2-aminoethyl)amino)pyridin-3-yl)-N1-(1-aminopropan-2-yl)-3-(2H-tetrazol-5-yl)benzene-1,2-disulfonamide] | 1.563 | 1.563 | –
NC[C@H](CO)NS(=O)(=O)c1ccc(-c2cccc3[nH]nnc23)c(-c2nn[nH]n2)c1S(N)(=O)=O [Example 407, (R)-N^1-(1-amino-3-hydroxypropan-2-yl)-4-(1H-benzo[d][1,2,3]triazol-4-yl)-3-(2H-tetrazol-5-yl)benzene-1,2-disulfonamide] | 3.125 | 1.563 | –
NC[C@H](N)CNS(=O)(=O)c1ccc(-c2cccc3[nH]c(N)nc23)c(-c2nn[nH]n2)c1S(N)(=O)=O [Example 370, (S)-4-(2-amino-1H-benzo[d]imidazol-4-yl)-N1-(2,3-diaminopropyl)-3-(2H-tetrazol-5-yl)benzene-1,2-disulfonamide] | 1.563 | – | 1.00
NCCNS(=O)(=O)c1ccc(-c2cnc3cc[nH]c3c2)c(-c2nn[nH]n2)c1S(N)(=O)=O [Example 359, N1-(2-aminoethyl)-4-(1H-pyrrolo[3,2-b]pyridin-6-yl)-3-(2H-tetrazol-5-yl)benzene-1,2-disulfonamide] | 1.563 | – | 2.00
Nc1ncccc1-c1ccc(S(=O)(=O)NC[C@@H]2CNCCN2)c(S(N)(=O)=O)c1-c1nn[nH]n1 [Example 313, (S)-4-(2-aminopyridin-3-yl)-N1-(piperazin-2-ylmethyl)-3-(2H-tetrazol-5-yl)benzene-1,2-disulfonamide] | 3.125 | – | 2.00
NCCNS(=O)(=O)c1ccc(-c2cccnc2N)c(-c2nn[nH]n2)c1S(N)(=O)=O [Example 358, N1-(2-aminoethyl)-4-(2-aminopyridin-3-yl)-3-(2H-tetrazol-5-yl)benzene-1,2-disulfonamide] | 1.563 | – | 2.00
Nc1nc(-c2cccc(-c3ccc(S(=O)(=O)N[C@H]4CNC[C@H]4N)c(S(N)(=O)=O)c3-c3nn[nH]n3)c2)c[nH]1 [Example 327, 3′-(2-amino-1H-imidazol-4-yl)-N4-((3S,4R)-4-aminopyrrolidin-3-yl)-2-(2H-tetrazol-5-yl)[1,1′-biphenyl]-3,4-disulfonamide] | 1.563 | – | 2.00
Nc1nc(-c2cccc(-c3ccc(S(=O)(=O)N[C@H]4CCNC4)c(S(N)(=O)=O)c3-c3nn[nH]n3)c2)c[nH]1 [Example 294, (S)-3′-(2-amino-1H-imidazol-4-yl)-N4-(pyrrolidin-3-yl)-2-(2H-tetrazol-5-yl)-[1,1′-biphenyl]-3,4-disulfonamide] | 1.563 | – | 2.00
NC(=O)c1csc(Nc2cccc(-c3ccc(S(=O)(=O)N[C@@H]4CCNC4)c(S(N)(=O)=O)c3-c3nn[nH]n3)c2)n1 [Example 471, (R)-2-((4′-(N-(pyrrolidin-3-yl)sulfamoyl)-3′-sulfamoyl-2′-(2H-tetrazol-5-yl)-[1,1′-biphenyl]-3-yl)amino)thiazole-4-carboxamide] | 3.125 | – | –
